For one assay, the target named is human P2X3 receptor (Homo sapiens (Human), UniProt P56373). The experiment in a line: Inhibitory activity on human P2X3 receptor (calcium 6 dye FLIPR assay, agonist α,β-MeATP). To be noted: HEK293-P2X3 stably expressing cell line, FLIPR Tetra. The format is cell-based.
The next assay addresses human P2X2/3 receptor (Homo sapiens (Human), UniProt P56373+Q9UBL9). As to the kind of experiment: Inhibitory activity on human P2X2/3 receptor (calcium 6 dye FLIPR assay, agonist α,β-MeATP). The format is cell-based. To be noted: HEK293-P2X2/3 stably expressing cell line, FLIPR Tetra.

SMILES strings stand for the structures. pIC50: −log10 of the molar value.

Sequence of human P2X3 receptor (P56373 whole entry): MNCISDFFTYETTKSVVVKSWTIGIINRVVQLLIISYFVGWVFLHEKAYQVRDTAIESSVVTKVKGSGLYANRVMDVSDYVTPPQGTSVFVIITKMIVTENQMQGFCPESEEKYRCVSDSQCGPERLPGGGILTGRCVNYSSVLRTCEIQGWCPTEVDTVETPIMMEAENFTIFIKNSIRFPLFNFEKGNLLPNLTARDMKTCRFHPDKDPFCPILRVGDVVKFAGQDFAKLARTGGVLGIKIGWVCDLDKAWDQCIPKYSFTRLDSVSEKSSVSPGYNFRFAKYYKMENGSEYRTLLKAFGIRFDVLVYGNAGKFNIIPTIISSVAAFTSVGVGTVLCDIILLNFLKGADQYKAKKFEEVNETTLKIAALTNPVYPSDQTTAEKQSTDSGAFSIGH
Sequence of human P2X2/3 receptor (Q9UBL9 whole entry): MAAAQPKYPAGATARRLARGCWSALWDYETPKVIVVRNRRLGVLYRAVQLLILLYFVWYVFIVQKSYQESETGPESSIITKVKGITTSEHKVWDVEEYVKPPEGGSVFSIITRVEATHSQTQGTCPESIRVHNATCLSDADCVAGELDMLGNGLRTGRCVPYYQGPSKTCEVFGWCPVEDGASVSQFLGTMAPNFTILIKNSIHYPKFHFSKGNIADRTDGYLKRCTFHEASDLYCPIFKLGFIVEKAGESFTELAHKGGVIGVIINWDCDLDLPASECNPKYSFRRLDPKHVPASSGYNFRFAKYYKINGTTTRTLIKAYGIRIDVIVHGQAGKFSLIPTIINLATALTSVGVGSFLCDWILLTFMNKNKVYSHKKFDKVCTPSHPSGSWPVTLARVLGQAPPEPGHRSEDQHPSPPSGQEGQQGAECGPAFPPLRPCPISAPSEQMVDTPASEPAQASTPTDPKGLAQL
Sequence of human P2X2/3 receptor (P56373 whole entry): as the sequence (P56373 whole entry) above

For orientation: pIC50 means the IC50 on a negative log10 scale, so that one unit is a factor of ten. Turning to `CC(C)c1cnc(Br)cc1Oc1cnc(N)nc1NNC(=O)OC(C)(C)C` [Compound C222, tert-butyl 2-(2-amino-5-((2-bromo-5-isopropylpyridin-4-yl)oxy)pyrimidin-4-yl)hydrazine-1-carboxylate], the pIC50 at human P2X3 receptor is 7.32; at human P2X2/3 receptor it was 7.40.

Turning to `C#Cc1cc(Sc2cnc(N)nc2N)c(C(C)C)cn1` [Compound C88, 5-((2-ethynyl-5-isopropyl-pyrdin-4-yl)thio) pyrimidine-2,4-diamine], the pIC50 at human P2X3 receptor is 6.88; on human P2X2/3 receptor, 6.91.

With `CNCCNc1nc(N)ncc1Oc1cc(Br)ncc1C(C)C` [Compound C202, 5-((2-bromo-5-isopropylpyridin-4-yl)oxy)-N^4-(2-(methylamino)ethyl)pyrimidine-2,4-diamine], the pIC50 is 6.99 at human P2X3 receptor and 6.78 on human P2X2/3 receptor.

Values taken from US11919918B2, “P2X3 andor P2X2/3 receptor antagonist, pharmaceutical composition comprising same, and use thereof” (BEIJING TIDE PHARMACEUTICAL CO., LTD., priority 2017, dated 2024).
